Laboratory results taken from US10206394B2, “Herbicidal compounds” (Syngenta Participations AG, priority 2014, dated 2019).
Like-named read-outs stand apart in the source and are kept apart here.

Assays:
Assay in all cases: Glasshouse assay for herbicidal activity (pre- and post-emergence), percentage phytotoxicity
Assay type in all cases: in vivo
[1] = tested on: Avena fatua (AVEFA); settings: Avena fatua, Rate 250 g/ha, 100%=total damage, 0%=no damage
Experimental: (§1) Test—Glasshouse Assay for Herbicidal Activity
(§2) Seeds of a variety of monocotyledonous and dicotyledonous test plants are sown in standard soil in pots. The plants are cultivated for one day (for pre-emergence (PRE)) or for about 12 days (for post-emergence (POST)) under controlled conditions in a glasshouse (warm climate species at 24/18° C., cool climate species at 20/16° C., both at day/night; 16 hours light; 65% humidity).
(§3) The test plants are then grown on, in a glasshouse (greenhouse) under controlled conditions (warm climate species at 24/18° C., cool climate species at 20/16° C., both at day/night; 16 hours light; 65% humidity) and are watered twice daily. 15 days after application of the test herbicide (15 DAA) (for post-emergence), and 20 days after application of the test herbicide (20 DAA) (for pre-emergence), the test plants are evaluated visually, and an assessed percentage phytotoxicity score is given for each herbicidal application on each plant species (with 100%=total damage to plant; 0%=no damage to plant).
(§4) The plant species tested are as follows: Alopecurus myosuroides (ALOMY), Avena fatua (AVEFA), Lolium perenne (LOLPE), Echinochloa crus-galli (ECHCG).

[2] = tested on: Lolium perenne (LOLPE); settings: Lolium perenne, Rate 250 g/ha, 100%=total damage, 0%=no damage
Experimental: as §1, §2, §3, §4

[3] = tested on: Alopecurus myosuroides (ALOMY); settings: Alopecurus myosuroides, Rate 250 g/ha, 100%=total damage, 0%=no damage
Experimental: as §1, §2, §3, §4

[4] = tested on: Echinochloa crus-galli (ECHCG); settings: Echinochloa crus-galli, Rate 250 g/ha, 100%=total damage, 0%=no damage
Experimental: as §1, §2, §3, §4

[5] = post-emergence, 360 h, post-emergence, assessed visually 15 DAA, read-out: Post-emergence herbicidal activity (percentage phytotoxicity) AVEFA POST
[6] = pre-emergence, 480 h, pre-emergence, assessed visually 20 DAA, read-out: Pre-emergence herbicidal activity (percentage phytotoxicity) AVEFA PRE
[7] = post-emergence, 360 h, post-emergence, assessed visually 15 DAA, read-out: Post-emergence herbicidal activity (percentage phytotoxicity) LOLPE POST
[8] = pre-emergence, 480 h, pre-emergence, assessed visually 20 DAA, read-out: Pre-emergence herbicidal activity (percentage phytotoxicity) LOLPE PRE
[9] = post-emergence, 360 h, post-emergence, assessed visually 15 DAA, read-out: Post-emergence herbicidal activity (percentage phytotoxicity) ALOMY POST
[10] = pre-emergence, 480 h, pre-emergence, assessed visually 20 DAA, read-out: Pre-emergence herbicidal activity (percentage phytotoxicity) ALOMY PRE
[11] = post-emergence, 360 h, post-emergence, assessed visually 15 DAA, read-out: Post-emergence herbicidal activity (percentage phytotoxicity) ECHCG POST
[12] = pre-emergence, 480 h, pre-emergence, assessed visually 20 DAA, read-out: Pre-emergence herbicidal activity (percentage phytotoxicity) ECHCG PRE

| SMILES | pest or weed control at 250 g/ha [1, 5] [%] | pest or weed control at 250 g/ha [1, 6] [%] | pest or weed control at 250 g/ha [2, 7] [%] | pest or weed control at 250 g/ha [2, 8] [%] | pest or weed control at 250 g/ha [3, 9] [%] | pest or weed control at 250 g/ha [3, 10] [%] | pest or weed control at 250 g/ha [4, 11] [%] | pest or weed control at 250 g/ha [4, 12] [%] |
| --- | --- | --- | --- | --- | --- | --- | --- | --- |
| CCC(C)(C)NC(=O)CC1CC(=O)C(c2c(C)cc(-c3ncc(Cl)cc3F)cc2C)C1=O (centres unmarked) [Compound A46] | 100 | 90 | 100 | 90 | 100 | 100 | 100 | 100 |
| COCCNC(=O)CC1CC(=O)C(c2c(C)cc(-c3ncc(Cl)cc3F)cc2C)C1=O (centres unmarked) [Compound A47] | 100 | 100 | 100 | 100 | 100 | 100 | 100 | 100 |
| CC#Cc1cc(C)c(C2C(=O)CC(CC(=O)NC(C)(C)C)C2=O)c(CC)c1 (centres unmarked) [Compound A48] | 100 | 90 | 100 | 100 | 100 | 100 | 100 | 100 |
| CC#Cc1cc(C)c(C2C(=O)CC(CC(=O)NCCOC)C2=O)c(CC)c1 (centres unmarked) [Compound A49] | 100 | 100 | 100 | 100 | 100 | 100 | 100 | 100 |
| CC#Cc1cc(C)c(C2C(=O)CC(CC(=O)NC(C)(C)CC)C2=O)c(CC)c1 (centres unmarked) [Compound A50] | 100 | 100 | 100 | 100 | 100 | 100 | 100 | 90 |
| CC#Cc1cc(C)c(C2C(=O)CC(CC(=O)NCCCC)C2=O)c(CC)c1 (centres unmarked) [Compound A51] | 100 | 100 | 100 | 100 | 100 | 100 | 100 | 100 |
| CC#Cc1cc(C)c(C2C(=O)CC(CC(=O)NC3CCCC3)C2=O)c(CC)c1 (centres unmarked) [Compound A52] | 100 | 90 | 90 | 90 | 100 | 100 | 100 | 90 |
| CC#Cc1cc(C)c(C2C(=O)CC(CC(=O)NCC(C)(C)C)C2=O)c(CC)c1 (centres unmarked) [Compound A53] | 90 | 80 | 90 | 90 | 100 | 90 | 100 | 100 |
| CC#Cc1cc(C)c(C2C(=O)CC(CC(=O)NC(C)C)C2=O)c(CC)c1 (centres unmarked) [Compound A54] | 100 | 100 | 100 | 100 | 100 | 100 | 100 | 100 |
| CC#Cc1cc(C)c(C2C(=O)CC(CC(=O)NCc3ccsc3)C2=O)c(C)c1 (centres unmarked) [Compound A55] | 100 | 80 | 90 | 90 | 90 | 90 | 100 | 100 |
| C=CCCNC(=O)CC1CC(=O)C(c2c(C)cc(C#CC)cc2C)C1=O (centres unmarked) [Compound A57] | 100 | 90 | 100 | 100 | 100 | 100 | 100 | 100 |
| CC#Cc1cc(C)c(C2C(=O)CC(CC(=O)NCCC(F)(F)F)C2=O)c(C)c1 (centres unmarked) [Compound A58] | 100 | 100 | 90 | 90 | 100 | 100 | 100 | 100 |
| CC#Cc1cc(C)c(C2C(=O)CC(CC(=O)NC(C)(C)CC)C2=O)c(C)c1 (centres unmarked) [Compound A60] | 100 | 100 | 90 | 100 | 100 | 100 | 100 | 100 |
| CC#Cc1cc(C)c(C2C(=O)CC(CC(=O)N(C)CCC)C2=O)c(C)c1 (centres unmarked) [Compound A61] | 100 | 90 | 90 | 100 | 100 | 100 | 100 | 100 |
| CC#Cc1cc(C)c(C2C(=O)CC(CC(=O)NC3CCCC3)C2=O)c(C)c1 (centres unmarked) [Compound A62] | 90 | 90 | 60 | 100 | 90 | 100 | 100 | 100 |
| CC#Cc1cc(C)c(C2C(=O)CC(CC(=O)NCC3CC3)C2=O)c(C)c1 (centres unmarked) [Compound A63] | 100 | 90 | 90 | 100 | 100 | 100 | 100 | 100 |
| C=CCOCC(C)(C)NC(=O)CC1CC(=O)C(c2c(C)cc(C#CC)cc2C)C1=O (centres unmarked) [Compound A64] | 90 | 70 | 70 | 80 | 90 | 70 | 100 | 100 |
| CC#Cc1cc(C)c(C2C(=O)CC(CC(=O)NCC(C)(C)C)C2=O)c(C)c1 (centres unmarked) [Compound A65] | 90 | 70 | 80 | 90 | 90 | 100 | 100 | 100 |
| CC#Cc1cc(C)c(C2C(=O)CC(CC(=O)NC3CC3)C2=O)c(CC)c1 (centres unmarked) [Compound A66] | 100 | 100 | 100 | 100 | 90 | 100 | 100 | 100 |
